Reference: the supplement of paper PMC10307832

How the values were obtained:
Test in all cases: relative viability (nuclei count vs DMSO), 5 days (fraction); higher = more cells survive
[1] = compound: COCC[n+]1c2c(n(Cc3cnccn3)c1C)C(=O)c1ccccc1C2=O [YM155] + CS(=O)(=O)CCNCc1ccc(-c2ccc3ncnc(Nc4ccc(OCc5cccc(F)c5)c(Cl)c4)c3c2)o1 [Lapatinib] (partner 2 µM)
Procedure, shortened: (§1)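 A single step with final 0.05% Triton X-100, 1% formaldehyde and 1 ug/ml Hoechst fixed the cells and stained nuclei 5 days after treatment. Lung cancer cell lines in 1536-well plates had been treated by pin tool the day after seeding with one drug alone or a fixed anchor-drug dose plus five library-drug doses (not always all listed) in √10 steps, and nuclei were counted on 4× images. Relative viability is the ratio of nuclei in treated wells to nuclei in vehicle wells, taken as the median of duplicate plates.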

[2] = compound: COCC[n+]1c2c(n(Cc3cnccn3)c1C)C(=O)c1ccccc1C2=O [YM155] + O=C(CCCCCCC(=O)Nc1ccccc1)NO [Vorinostat] (partner 1 µM)
Procedure, shortened: as §1

[3] = compound: CC(C)(C)c1cc(NC(=O)Nc2ccc(-c3cn4c(n3)sc3cc(OCCN5CCOCC5)ccc34)cc2)no1 [Quizartinib] + O=C(CCCCCCC(=O)Nc1ccccc1)NO [Vorinostat] (partner 1 µM)
Procedure, shortened: as §1

[4] = compound: CC(C)(C)c1cc(NC(=O)Nc2ccc(-c3cn4c(n3)sc3cc(OCCN5CCOCC5)ccc34)cc2)no1 [Quizartinib] + N=C(N)NC(=N)NCCc1ccccc1 [Phenformin] (partner 250 µM)
Procedure, shortened: as §1

Cell Line	relative viability ([1]; first compound 0.002 µM)	relative viability ([1]; first compound 0.006325 µM)	relative viability ([1]; first compound 0.02 µM)	relative viability ([1]; first compound 0.06325 µM)	relative viability ([2]; first compound 0.002 µM)	relative viability ([2]; first compound 0.006325 µM)	relative viability ([2]; first compound 0.02 µM)	relative viability ([2]; first compound 0.06325 µM)	relative viability ([3]; first compound 0.001 µM)	relative viability ([3]; first compound 0.003162 µM)	relative viability ([3]; first compound 0.01 µM)	relative viability ([3]; first compound 0.03162 µM)	relative viability ([3]; first compound 0.1 µM)	relative viability ([4]; first compound 0.001 µM)	relative viability ([4]; first compound 0.003162 µM)	relative viability ([4]; first compound 0.01 µM)	relative viability ([4]; first compound 0.03162 µM)	relative viability ([4]; first compound 0.1 µM)
LU99A	0.965	0.884	0.809	0.589	0.508	0.419	0.514	0.441	0.373	0.51	0.449	0.481	0.502	0.774	0.78	0.904	0.533	0.248
LXF-289	0.891	0.892	0.905	0.713	0.739	0.789	0.73	0.756	0.645	0.752	0.782	0.726	0.738	0.485	0.496	0.529	0.497	0.539
NCI-H23	0.877	1.09	0.736	0.313		0.555	0.626	0.544	0.576	0.6	0.545	0.593	0.649		0.724	0.771	0.727	0.841
NCI-H322M	0.601	0.628	0.509	0.585	0.85	0.925	0.854	0.909	0.867	0.842	0.836	0.878	0.903	0.541	0.827	0.837	0.547	0.744
NCI-H358	0.326	0.447	0.344	0.199	0.641	0.643	0.86	0.106	0.733	0.572	0.803		0.815	0.292	0.4	0.327	0.115	0.299
NCI-H460	0.906	1.1	1.05	0.452	0.706	0.727	0.802	0.688		0.734	0.687		0.566	0.379	0.48	0.587	0.0822	0.028
NCI-H520	0.801	0.733	1.16	1.02	0.824	0.695	0.736	0.729		0.607	0.768	0.61	0.573	0.582	0.526	0.532	0.357	0.35
NCI-H596		1.11	1.09	1.06	0.554	0.468	0.676	0.551	0.565	0.775	0.61	0.686	0.6	0.834	0.681	0.712	0.667	0.714
NCI-H647	1.13	1.08	0.799	0.405	0.472	0.484	0.755	0.388	0.567	0.494	0.655	0.688	0.998	0.463	0.591	0.569	0.453	0.514
